According to patent publication US20120071539A1, “COMPOUNDS AND METHODS FOR MODULATING THE SILENCING OF A POLYNUCLEOTIDE OF INTEREST” (Emory University, priority 2006, published 2012):
Where a name gives a salt, the structure may show the parent alone.

Tests used:
[1] = test system: siRNA-mediated mRNA degradation; test: cell-based reporter screen: human 293 cells stably expressing GFP plus siRNA hairpin against GFP; details: for Modulation Effect (inhibit or enhance siRNA-mediated mRNA degradation): Table 1
Experimental: FIG. 2 discloses one embodiment of the cell-based reporter system of the invention. In this example, a human 293-cell line stably expressing a reporter gene, GFP, was used. This cell line was further transfected with a construct that expresses siRNA hairpin against GFP, which can decrease the level of GFP expression. Individual clones were isolated with greatly (although not completely) reduced GFP expression.
Using the above-identified clones, a screen was performed using The Spectrum Collection (MicroSource Discovery Systems, Inc., Gaylordsville, Conn., United States of America), which contains 2000 biologically active and structurally diverse compounds from libraries of known drugs, experimental bioactives, and pure natural products. For example, in one embodiment, a pilot screen of this library identified one inhibitor and one enhancer of siRNA-mediated mRNA degradation.
To identify the chemical compounds that modulate the siRNA and miRNA pathway, a screening strategy was used. A human 293-cell line stably expressing a reporter gene, GFP, was used. This cell line was further transfected with a construct that expresses siRNA hairpin against GFP, which could knock down the expression of GFP. […] Using these clones, a screen was performed using The Spectrum Collection, which contains 2000 biologically active and structurally diverse compounds from libraries of known drugs, experimental bioactives, and pure natural products.
Human 293 cells stably expressing a reporter gene, GFP, were further transfected with a construct that expresses an siRNA hairpin against GFP, which results in the knock-down of the expression of GFP. Transfected cells containing the siRNA suppressed GPF expression were split and then treated with an effective amount of enoxacin (FIG. 4, second panel) and were grown for a period of 24-48 hours.

[2] = test system: Clone#3, 293-EGFP-siGFP cells; test: plate-reader chemical library screen, GFP signal in Clone#3 cells; type: cell-based, human; details: for Clone#3, 293-EGFP-siGFP cells GFP signal intensity with Drug alone: plate reader
Excerpt: Further, in some embodiments, additional screens using the same library can be performed to identify other modulators of the siRNA and the miRNA pathways. In some embodiments, instead of examining the GFP signal visually under a microscope, the GFP signal can be quantified using an automatic plate reader. In such embodiments, two additional rounds of screening can be performed. In the first round of screening, the clones can be treated with compounds from a library, e.g., The Spectrum Collection, alone and the GFP level can be quantified after a period of time, e.g., 48 hours. In the second round of screening, the clones can be treated with compounds from a library, e.g., The Spectrum Collection, in the presence of 50 μM RNAi-E, i.e., enoxacin. This assay enables compounds that can modulate the activity of RNAi-E to be identified.
(§1) The presently disclosed chemical library also was screened using a plate reader to quantify the GFP signal intensity. The following screens were conducted: (1) repeating chemical screen using plate reader to quantify the GFP signal (50 mM each drug); (2) treating cells with 50 mM RNAi-I (30 mM each additional drug); and treating cells with […] (30 mM each additional drug).
(§2) For each screen, two types of cells were used: Clone#3 and EGFP. Clone#3 cells are 293-EGFP-siGFP and could be used to identify the modulators of the RNAi pathway. EGFP cells are 293-EGFP only and were used as a control to eliminate the compounds that could kill the cells or interfere GFP signals that are not related to RNAi pathway. The results for each screen are summarized in Table 2 and Table 3, respectively.
(§3) In these three screens, compounds were identified that could either enhance or inhibit RNAi activity in Clone#3, but had no effect on EGFP cells, which would indicate that these compounds might specifically work on RNAi pathway. The modulation of RNAi activity by these compounds was calculated as the percentage of GFP signal to Clone#3 control cells.

EGFP, 293-EGFP cells = test: plate-reader chemical library screen, GFP signal in control EGFP cells; type: cell-based, human; details: for EGFP, 293-EGFP cells With RNAi-E / EGFP, 293-EGFP cells Drug alone: GFP signal
Experimental: as §1, §2, §3

tumor cell models = details: cited from earlier work
[3] = test system: shRNA against Luciferase mRNA; test: GL-3 luciferase reporter in cells expressing shRNA against luciferase; type: cell-based; details: FIG. 5
Excerpt: In this example, a luciferase reporter construct GL-3 was transfected into the cells expressing shRNA against Luciferase mRNA.

[4] = 50 mM RNAi-E, 30 mM each additional drug
[5] = 50 mM RNAi-E, 30 mM each additional drug, values given as decimals
[6] = 50 mM each drug, values given as decimals

| Structure (SMILES) | Modulation Effect (inhibit or enhance siRNA-mediated mRNA degradation) [1] | Clone#3, 293-EGFP-siGFP cells GFP signal intensity with Drug and RNAi-E [2, 4] | Clone#3, 293-EGFP-siGFP cells GFP signal intensity with Drug alone ([2]; 50 mM each drug) | Effect ([2]; Table 2) | Effect ([2]; as listed in Table 3) | EGFP, 293-EGFP cells With RNAi-E (EGFP, 293-EGFP cells; [4]) | EGFP, 293-EGFP cells Drug alone (EGFP, 293-EGFP cells; 50 mM each drug) | also measured |
| --- | --- | --- | --- | --- | --- | --- | --- | --- |
| C=C1C2CCC3(C)C(c4ccoc4)OC(=O)CC13OC1CC(O)C(C)(C)C(CC(=O)OC)C12C (stereo not drawn) [3-alpha-hydroxy-3-deoxyangolensic acid methyl ester] | Enhancer | 10902446 | 10997867 | Enhancer | Enhancer | 118263232 | 129330172 | – |
| CC(=O)O[C@@H]1C[C@H]2C(C)(C)[C@@H](O)CC[C@]2(C)[C@H]2CC[C@]3(C)C(=CC(=O)O[C@H]3c3ccoc3)[C@@]21C [3-beta-Hyroxydeoxo-dihydrodeoxygedunin, 3-beta-hydroxydeoxodihydrodeoxygedunin] | Enhancer | 13998738 | 17430963 | Enhancer | Enhancer | 186574276 | 213530556 | – |
| NC(=S)NN=Cc1ccc(O)cn1 [5-HP, 5-hydroxypyridine-2-carboxaldehyde thiosemicarbazone] | – | – | – | – | – | – | – | anti-proliferative activity (tumor cell models): anti-proliferative activity |
| CC(C)C[C@H]1C(=O)N2CCC[C@H]2[C@]2(O)O[C@](NC(=O)[C@@H]3C=C4c5cccc6[nH]c(Br)c(c56)C[C@H]4N(C)C3)(C(C)C)C(=O)N12 [Bromocriptine Mesylate] | – | 10893798 | 7607590 | – | – | 136409552 | 132392840 | – |
| C=C[C@@]1(C)CC(=O)[C@]2(O)[C@@]3(C)[C@@H](O)CCC(C)(C)[C@@H]3[C@H](O)[C@H](OC(C)=O)[C@@]2(C)O1 [Colforsin] | Inhibitor | – | – | Inhibitor | Inhibitor | – | – | – |
| CC(=O)N(O)CCCCCNC(=O)CCC(=O)N(O)CCCCCNC(=O)CCC(=O)N(O)CCCCCN [Deferoxamine Mesylate] | – | 12987131 | 15874023.8 | – | – | 194519648 | 194929488 | – |
| Cc1cc(=O)c2c(O)c3c(cc2o1)OCC(C)CC3 (stereo not drawn) [Dihydroptaeroxylin] | Enhancer | 17140237.8 | 26383349 | Enhancer | Enhancer | 194786588 | 215783848 | Clone#3, 293-EGFP-siGFP cells % GFP signal intensity with drug + RNAi-E/Control (no drug) [2, 5]: 59.4446%; Clone#3 293-EGFP-siGFP cells % GFP signal intensity with drug alone/Control (no drug) [2, 6]: 91.5009%; EGFP, 293-EGFP cells Control % (With RNAi-E) (EGFP, 293-EGFP cells; [5]): 95.4836%; EGFP, 293-EGFP cells Control % (Drug alone) (EGFP, 293-EGFP cells; [6]): 105.776% |
| O=C(O)CCC(=O)c1ccc(-c2ccccc2)cc1 [Fenbufen] | Enhancer | 17801864.5 | 26499027 | Enhancer | Enhancer | 191729340 | 204633204 | – |
| CC(=O)O[C@H]1C[C@@]2(C)[C@@H](C[C@@H](O)[C@H]3[C@@]4(C)CC[C@@H](O)[C@@H](C)[C@@H]4CC[C@@]32C)/C1=C(\CCC=C(C)C)C(=O)O [Fusidic Acid] | Enhancer | 18581363.5 | 27803206.5 | Enhancer | Enhancer | 192354884 | 229560272 | – |
| O=C1CC[C@]23/C=C/C(=O)NCCCCNCCCNC(=O)/C=C/c4ccc(c2c4)O[C@@H]3C1 [Lunarine] | Enhancer | 11171512 | 9353700 | Enhancer | Enhancer | 130354040 | 131010562 | – |
| COc1cc2c(cc1OC)C(=O)OC2 [Metameconine] | Inhibitor | – | – | Inhibitor | Inhibitor | – | – | – |
| O=C(NCCN(CCNC(=O)c1cc(S(=O)(=O)O)c2cccnc2c1O)CCNC(=O)c1cc(S(=O)(=O)O)c2cccnc2c1O)c1cc(S(=O)(=O)O)c2cccnc2c1O [OTX, O-trensox] | – | – | – | – | – | – | – | anti-proliferative activity (tumor cell models): anti-proliferative activity |
| Cc1ncc(CO)c(C=NNC(=O)c2ccncc2)c1O [P1H, pyridoxal isonicotinoyl hydrazone] | – | – | – | – | – | – | – | anti-proliferative activity (tumor cell models): anti-proliferative activity |
| Nc1nc2[nH]cnc2c(=S)[nH]1 [Thioguanine] | Enhancer | 9228044.75 | 11903224.8 | Enhancer | Enhancer | 193528220 | 181033260 | – |
| NC(=S)NN=Cc1ncccc1N [Triapine, 3-aminopyridine-2-carboxaldehyde thiosemicarbazone] | – | – | – | – | – | – | – | activity against tumor cell models (tumor cell models): has activity against a variety of tumor cell models; anti-proliferative activity (tumor cell models): anti-proliferative activity |
| Cc1ccc(/C(=C\CN2CCCC2)c2ccccn2)cc1 [Triprolidine Hydrochloride] | – | 19639902.5 | 26791778.5 | – | – | 202110668 | 202102776 | – |
| O=C(O)c1cn(C2CC2)c2cc(N3CCNCC3)c(F)cc2c1=O [ciprofloxacin] | – | – | – | – | – | – | – | knock-down efficiency of shRNA against luciferase mRNA [3]: increased the knock-down efficiency; siRNA-mediated mRNA degradation [3]: enhance siRNA-mediated mRNA degradation |
| CC(=O)N(O)CCCCCNC(=O)CCC(=O)N(O)CCCCCNC(=O)CCC(=O)N(O)CCCCCN [desferrioxamine] | – | – | – | – | – | – | – | anti-proliferative activity (tumor cell models): anti-proliferative activity; sensitivity of aggressive tumors to Fe chelation therapy (tumor cell models; neuroblastoma (NB) and leukemia, in vitro, in vivo and clinical trials): sensitive |
| COc1cc(C(=O)NCc2ccc(OCCN(C)C)cc2)cc(OC)c1OC [trimethobenzamide] | – | – | – | – | – | – | – | siRNA-mediated mRNA degradation and gene knock-down ([1]; pilot screen of The Spectrum Collection, FIG. 3, FIG. 4): inhibit siRNA-mediated mRNA degradation and gene knock-down |
